Test results reported in patent publication US8710198B2, “Caprazene as a novel compound and derivatives thereof, and caprazol as a novel compound and derivatives thereof” (Meiji Seika Pharma Co., Ltd., priority 2003, dated 2014).

How the values were obtained:
Type in all cases: cell-based
[1] = system: Mycobacterium smegmatis ATCC607; experiment: Minimum growth inhibitory concentration on agar culture medium with 1% glycerine by serial dilution method; details: agar culture medium with the addition of 1% glycerine
Procedure: (§1) Minimum growth inhibitory concentrations (mcg/ml) of caprazene-1′″-amide derivatives of the formula (II) against some of microorganisms were measured on an agar culture medium by a serial dilution method according to the standard method as provided by Japanese Society of Chemotherapy. For the cultivation of Mycobacterium smegmatis (one of […]), however, there was used an agar culture medium with the addition of 1% glycerine (the same applies to in the following tests).
(§2) Minimum growth inhibitory concentrations (mcg/ml) of some of the caprazene-1′″-ester derivative of the formula (III) against some of microorganisms were measured on an agar culture medium by a serial dilution method according to the standard method as provided by Japanese Society of Chemotherapy.
(§3) Minimum growth inhibitory concentrations (mcg/ml) of some of the caprazol-1′″-amide derivative of the formula (V) against a variety of microorganisms were measured on an agar medium by a serial dilution method according to the standard method as provided by Japanese Society of Chemotherapy.
as §3, with “caprazol-1′″-amide-3′″-ester” for “caprazol-1′″-amide”, “(VI)” for “(V)”
as §3, with “caprazol-3′″-ester derivative or caprazol-1′″-ester-3′″-ester” for “caprazol-1′″-amide”, “(VII)” for “(V)”

[2] = system: Staphylococcus aureus FDA209P; experiment: Minimum growth inhibitory concentration on agar culture medium by serial dilution method (Japanese Society of Chemotherapy)
Procedure: as §1, §2, §3
as §3, with “caprazol-1′″-amide-3′″-ester” for “caprazol-1′″-amide”, “(VI)” for “(V)”
as §3, with “caprazol-3′″-ester derivative or caprazol-1′″-ester-3′″-ester” for “caprazol-1′″-amide”, “(VII)” for “(V)”
(§4) Minimum growth inhibitory concentrations (mcg/ml) of some of the derivative of the formula (VIII) against a variety of microorganisms were measured on an agar medium by a serial dilution method according to the standard method as provided by Japanese Society of Chemotherapy.

Micrococcus luteus FDA16 = experiment: as above
Procedure: as §1, §2, §3
as §4, with “of the caprazol-1′″-amide-3′″-ester derivative of” for “of the derivative of”, “the formula (VI) against a” for “the formula (VIII) against a”
as §4, with “of the caprazol-3′″-ester derivative or caprazol-1′″-ester-3′″-ester derivative of” for “of the derivative of”, “the formula (VII) against a” for “the formula (VIII) against a”
as §4

Structure (SMILES)	Minimum growth inhibitory concentration (mcg/ml) against bacteria Mycobacterium smegmatis ATCC607 [1]	Minimum growth inhibitory concentration (mcg/ml) against bacteria Staphylococcus aureus FDA209P [2]	Minimum growth inhibitory concentration (mcg/ml) against bacteria Micrococcus luteus FDA16 (Micrococcus luteus FDA16)
CCCCCCCCCCCCCCNC(=O)C1=CCN(C)C(C(OC2OC(CN)C(O)C2O)C2OC(n3ccc(=O)[nH]c3=O)C(O)C2O)C(=O)N1C (stereo not drawn) [Compound II-I]	0.78 µg/mL	3.13 µg/mL	0.78 µg/mL
CCCCCCCCCCCCCCCNC(=O)C1=CCN(C)C(C(OC2OC(CNC(=O)OC(C)(C)C)C(O)C2O)C2OC(n3ccc(=O)[nH]c3=O)C(O)C2O)C(=O)N1C (stereo not drawn) [Compound II-J-N-Boc]	25 µg/mL	12.5 µg/mL	12.5 µg/mL
CCCCCCCCCCCCCCCNC(=O)C1=CCN(C)C(C(OC2OC(CN)C(O)C2O)C2OC(n3ccc(=O)[nH]c3=O)C(O)C2O)C(=O)N1C (stereo not drawn) [Compound II-J]	1.56 µg/mL	1.56 µg/mL	0.78 µg/mL
CCCCCCCCCCCCCCCCNC(=O)C1=CCN(C)C(C(OC2OC(CN)C(O)C2O)C2OC(n3ccc(=O)[nH]c3=O)C(O)C2O)C(=O)N1C (stereo not drawn) [Compound II-K]	3.13 µg/mL	3.13 µg/mL	0.78 µg/mL
CCCCCCCCCCCCCCCCCNC(=O)C1=CCN(C)C(C(OC2OC(CN)C(O)C2O)C2OC(n3ccc(=O)[nH]c3=O)C(O)C2O)C(=O)N1C (stereo not drawn) [Compound II-L]	3.13 µg/mL	1.56 µg/mL	1.56 µg/mL
CCCCCCCCCCCCCCCCCCNC(=O)C1=CCN(C)C(C(OC2OC(CN)C(O)C2O)C2OC(n3ccc(=O)[nH]c3=O)C(O)C2O)C(=O)N1C (stereo not drawn) [Compound II-M]	3.13 µg/mL	6.25 µg/mL	0.78 µg/mL
CCCCCCCCCCCCCCCCCCCNC(=O)C1=CCN(C)C(C(OC2OC(CN)C(O)C2O)C2OC(n3ccc(=O)[nH]c3=O)C(O)C2O)C(=O)N1C (stereo not drawn) [Compound II-N]	50 µg/mL	6.25 µg/mL	0.78 µg/mL
CCCCCCCCCCCCCCCCCCCCNC(=O)C1=CCN(C)C(C(OC2OC(CN)C(O)C2O)C2OC(n3ccc(=O)[nH]c3=O)C(O)C2O)C(=O)N1C (stereo not drawn) [Compound II-O]	25 µg/mL	3.13 µg/mL	3.13 µg/mL
CCCCCCCCCCCCCCCCCCCCCNC(=O)C1=CCN(C)C(C(OC2OC(CN)C(O)C2O)C2OC(n3ccc(=O)[nH]c3=O)C(O)C2O)C(=O)N1C (stereo not drawn) [Compound II-P]	50 µg/mL	6.25 µg/mL	3.13 µg/mL
CN1C(=O)C(C(OC2OC(CN)C(O)C2O)C2OC(n3ccc(=O)[nH]c3=O)C(O)C2O)N(C)CC=C1C(=O)NC1CCCCCCCCCCC1 (stereo not drawn) [Compound II-Q]	3.13 µg/mL	100 µg/mL	0.20 µg/mL
CCCCCCCCC=CCCCCCCCCNC(=O)C1=CCN(C)C(C(OC2OC(CN)C(O)C2O)C2OC(n3ccc(=O)[nH]c3=O)C(O)C2O)C(=O)N1C (stereo not drawn) [Compound II-R]	1.56 µg/mL	1.56 µg/mL	1.56 µg/mL
CCCCCCCCCCOC(=O)C1=CCN(C)C(C(OC2OC(CN)C(O)C2O)C2OC(n3ccc(=O)[nH]c3=O)C(O)C2O)C(=O)N1C (stereo not drawn) [Compound III-AA]	12.5 µg/mL	12.5 µg/mL	1.56 µg/mL
CCCCCCCCCCCCCOC(=O)C1=CCN(C)C(C(OC2OC(CN)C(O)C2O)C2OC(n3ccc(=O)[nH]c3=O)C(O)C2O)C(=O)N1C (stereo not drawn) [Compound III-BB]	12.5 µg/mL	3.13 µg/mL	3.13 µg/mL
CCCCCCCCCCCCCCCCCCOC(=O)C1=CCN(C)C(C(OC2OC(CN)C(O)C2O)C2OC(n3ccc(=O)[nH]c3=O)C(O)C2O)C(=O)N1C (stereo not drawn) [Compound III-CC]	>100 µg/mL	12.5 µg/mL	6.25 µg/mL
CCCCCCCCCC=CCOC(=O)C1=CCN(C)C(C(OC2OC(CN)C(O)C2O)C2OC(n3ccc(=O)[nH]c3=O)C(O)C2O)C(=O)N1C (stereo not drawn) [Compound III-EE]	12.5 µg/mL	6.25 µg/mL	1.56 µg/mL
CCCCCCC#CCCOC(=O)C1=CCN(C)C(C(OC2OC(CN)C(O)C2O)C2OC(n3ccc(=O)[nH]c3=O)C(O)C2O)C(=O)N1C (stereo not drawn) [Compound III-GG]	25 µg/mL	50 µg/mL	6.25 µg/mL
CCCCCCNC(=O)C1C(O)CN(C)C(C(OC2OC(CN)C(O)C2O)C2OC(n3ccc(=O)[nH]c3=O)C(O)C2O)C(=O)N1C (stereo not drawn) [Compound V-A]	12.5 µg/mL	50 µg/mL	50 µg/mL
CCCCCCCCNC(=O)C1C(O)CN(C)C(C(OC2OC(CN)C(O)C2O)C2OC(n3ccc(=O)[nH]c3=O)C(O)C2O)C(=O)N1C (stereo not drawn) [Compound V-C]	6.25 µg/mL	25 µg/mL	25 µg/mL
CCCCCCCCCCNC(=O)C1C(O)CN(C)C(C(OC2OC(CN)C(O)C2O)C2OC(n3ccc(=O)[nH]c3=O)C(O)C2O)C(=O)N1C (stereo not drawn) [Compound V-E]	6.25 µg/mL	25 µg/mL	25 µg/mL
CCCCCCCCCCCNC(=O)C1C(O)CN(C)C(C(OC2OC(CN)C(O)C2O)C2OC(n3ccc(=O)[nH]c3=O)C(O)C2O)C(=O)N1C (stereo not drawn) [Compound V-F]	6.25 µg/mL	12.5 µg/mL	25 µg/mL
CCCCCCCCCCCCNC(=O)C1C(O)CN(C)C(C(OC2OC(CN)C(O)C2O)C2OC(n3ccc(=O)[nH]c3=O)C(O)C2O)C(=O)N1C (stereo not drawn) [Compound V-G, caprazol-1′″-dodecyl-amide derivative]	6.25 µg/mL	12.5 µg/mL	25 µg/mL
CCCCCCCCC=CCCCCCCCCNC(=O)C1C(O)CN(C)C(C(OC2OC(CN)C(O)C2O)C2OC(n3ccc(=O)[nH]c3=O)C(O)C2O)C(=O)N1C (stereo not drawn) [Compound V-R]	6.25 µg/mL	12.5 µg/mL	25 µg/mL
CCCCCCCCNC(=O)C1C(OC(=O)CCCCCCCC)CN(C)C(C(OC2OC(CN)C(O)C2O)C2OC(n3ccc(=O)[nH]c3=O)C(O)C2O)C(=O)N1C (stereo not drawn) [Compound VI-C]	6.25 µg/mL	12.5 µg/mL	6.25 µg/mL
